25 molecules from patent US9421209B2, “Kinase modulators” (Rhizen Pharmaceuticals SA, priority 2009, dated 2016) can be followed below.

Structures are written as SMILES.

Series [1] addresses P110 δ/Pi3K δ (Homo sapiens, UniProt O00329). Kind of series: Fluorescent (HTRF) determination of PI3K enzyme activity, δ isoform. Also on record: inhibition: dose or concentration left out as unconfirmed. Format: biochemical. The text has this: Assay 1: Fluorescent determination of PI3Kinase Kinase enzyme activity
Phosphoinositide 3 kinases (PI3K) belong to a class of lipid kinases that play a critical role in the regulation of several key cellular processes. The PI3K are capable of phosphorylating the 3-hydroxy position of phosphoinositols thereby generating second messengers involved in downstream signalling events. The homogenous time resolved fluorescence (HTRF) assay allows detection of 3,4,5-triphosphate (PIP3) formed as a result of phosphorylation of phosphotidylinositol 4,5-biphosphate (PIP2) by PI3K isoforms such as α, β, γ or δ.
PI3K isoform activity for α, β, γ or δ was determined using a PI3K human HTRF™ Assay Kit (Millipore, Billerica, Mass.) with modifications. All incubations were carried out at room temperature. […] After the initial incubation, 5 μl/well of 400 μM ATP was added and incubated for an additional 30 minutes. Reaction was terminated by adding 5 μl/well stop solution (Millipore, Billerica, Mass.). Five microliters of detection mix (Millipore, Billerica, Mass.) were then added to each well and was incubated for 6-18 h in the dark. […] Data were analyzed using Graphpad Prism (Graphpad software; San Diego Calif.) for IC50 determination. Percent inhibition was calculated based on the values for the blank and enzyme controls.
In general terms: In TR-FRET formats the signal depends on donor and acceptor labels being close together.

Sequence of P110 δ/Pi3K δ (O00329 whole entry, canonical isoform): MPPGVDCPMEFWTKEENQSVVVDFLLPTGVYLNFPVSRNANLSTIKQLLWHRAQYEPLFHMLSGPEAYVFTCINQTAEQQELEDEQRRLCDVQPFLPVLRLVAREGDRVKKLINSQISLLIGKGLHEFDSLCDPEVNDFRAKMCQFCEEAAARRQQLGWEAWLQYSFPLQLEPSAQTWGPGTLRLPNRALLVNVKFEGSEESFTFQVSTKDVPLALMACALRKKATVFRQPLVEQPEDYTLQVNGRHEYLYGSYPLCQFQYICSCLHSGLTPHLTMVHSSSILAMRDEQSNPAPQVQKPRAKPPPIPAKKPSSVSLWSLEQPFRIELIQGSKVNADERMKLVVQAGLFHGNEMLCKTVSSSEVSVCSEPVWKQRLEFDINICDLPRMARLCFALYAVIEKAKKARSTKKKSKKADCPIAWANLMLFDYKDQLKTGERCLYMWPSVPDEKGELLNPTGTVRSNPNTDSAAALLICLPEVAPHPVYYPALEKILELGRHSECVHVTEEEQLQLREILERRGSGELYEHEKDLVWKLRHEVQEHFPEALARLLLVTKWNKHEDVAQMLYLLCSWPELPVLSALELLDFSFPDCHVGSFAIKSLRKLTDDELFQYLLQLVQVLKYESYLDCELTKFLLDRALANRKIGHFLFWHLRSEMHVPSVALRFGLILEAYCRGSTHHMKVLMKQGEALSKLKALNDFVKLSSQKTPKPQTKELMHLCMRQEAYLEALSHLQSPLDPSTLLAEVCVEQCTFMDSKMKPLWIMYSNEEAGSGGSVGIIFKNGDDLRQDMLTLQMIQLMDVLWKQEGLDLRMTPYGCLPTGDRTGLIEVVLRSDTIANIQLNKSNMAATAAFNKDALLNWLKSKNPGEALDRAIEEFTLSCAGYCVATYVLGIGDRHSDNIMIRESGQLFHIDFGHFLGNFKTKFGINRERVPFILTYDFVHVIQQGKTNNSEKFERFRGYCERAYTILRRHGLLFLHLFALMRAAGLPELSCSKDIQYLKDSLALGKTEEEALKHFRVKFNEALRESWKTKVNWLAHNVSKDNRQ
Sequence of P110 δ/Pi3K δ (P27986 whole entry partner, canonical isoform): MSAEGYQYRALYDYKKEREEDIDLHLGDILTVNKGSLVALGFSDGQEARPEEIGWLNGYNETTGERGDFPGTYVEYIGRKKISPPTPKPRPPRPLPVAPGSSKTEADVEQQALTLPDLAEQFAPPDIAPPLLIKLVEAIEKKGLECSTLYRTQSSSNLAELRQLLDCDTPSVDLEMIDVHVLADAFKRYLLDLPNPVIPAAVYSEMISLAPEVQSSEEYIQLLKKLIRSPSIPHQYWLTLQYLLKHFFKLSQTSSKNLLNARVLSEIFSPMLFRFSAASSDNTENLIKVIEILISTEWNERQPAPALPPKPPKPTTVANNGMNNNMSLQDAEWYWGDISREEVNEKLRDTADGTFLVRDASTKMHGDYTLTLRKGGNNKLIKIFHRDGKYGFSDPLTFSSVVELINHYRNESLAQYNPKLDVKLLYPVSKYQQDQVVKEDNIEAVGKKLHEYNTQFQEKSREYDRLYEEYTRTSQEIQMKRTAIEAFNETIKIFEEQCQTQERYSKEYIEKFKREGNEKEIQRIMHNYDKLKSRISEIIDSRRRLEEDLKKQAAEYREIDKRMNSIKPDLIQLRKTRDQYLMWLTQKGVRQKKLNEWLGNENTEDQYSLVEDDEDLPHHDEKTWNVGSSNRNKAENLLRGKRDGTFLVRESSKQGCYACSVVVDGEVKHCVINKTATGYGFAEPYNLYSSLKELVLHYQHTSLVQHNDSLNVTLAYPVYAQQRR

With `Cl.O=c1c(-c2ccc(F)cc2)c(CN2CCOCC2)oc2ccc(Br)cc12`, the melting point (in general, the temperature, or range, at which the solid turns liquid) fell in the range of 232 to 236 °C.
The same measure, in the same setting: under `Cl.O=c1c(-c2ccccc2)c(CN2CCOCC2)oc2ccc(Br)cc12` stands 229 to 230 °C.
`Nc1ncnc2c1ncn2Cc1oc2ccccc2c(=O)c1-c1ccccc1` [Example 3, 2-[(6-Amino-9H-purin-9-yl)methyl]-3-phenyl-4H-chromen-4-one] had a melting point of 173 to 175 °C. In series [1], the inhibition (in general, the share of the control response that was lost under treatment) at 1 µM is less than 50%.
In the same order, the values of `Cl.O=c1c(-c2ccccc2)c(CN2CCOCC2)oc2ccccc12` [Example 4a, 2-(Morpholinomethyl)-3-phenyl-4H-chromen-4-one hydrochloride] are 208 to 209 °C and less than 50%.
As to `O=c1c(-c2ccccc2)c(Cn2cnc3ccccc32)oc2ccc(Br)cc12` [Example 5, 2-[(1H-Benzo[d]imidazol-1-yl)methyl]-6-bromo-3-phenyl-4H-chromen-4-one], the melting point was 192 to 197 °C.
`Cc1cccc2c1ncn2Cc1oc2ccc(Br)cc2c(=O)c1-c1ccccc1` [Example 6, 6-Bromo-2-[(4-methyl-1H-benzo[d]imidazol-1-yl)methyl]-3-phenyl-4H-chromen-4-one] had a melting point of 176 to 179 °C. In series [1], this molecule registered an inhibition at 1 µM of less than 50%.
On the same counts, the results for `O=c1c(-c2ccccc2)c(Cn2cnc3ccccc32)oc2ccccc12` [Example 7, 2-[(1H-benzo[d]imidazol-1-yl)methyl]-3-phenyl-4H-chromen-4-one] are 186 to 191 °C and less than 50%.
As for `Cc1cccc2c1ncn2Cc1oc2ccccc2c(=O)c1-c1ccccc1` [Example 8, 2-[(4-methyl-1H-benzo[d]imidazol-1-yl)methyl]-3-phenyl-4H-chromen-4-one], the melting point is 204 to 208 °C.
In the case of `O=c1c(-c2ccccc2)c(Cn2cnc3c(Cl)ncnc32)oc2ccccc12` [Example 9, 2-[(6-Chloro-9H-purin-9-yl)methyl]-3-phenyl-4H-chromen-4-one], the melting point was in the range of 187 to 190 °C. The molecule further had an inhibition at 1 µM in series [1] of less than 50%.
As to `O=c1c(-c2ccccc2)c(CSc2ncnc3[nH]cnc23)oc2ccccc12` [Example 11, 2-((9H-Purin-6-ylthio)methyl)-3-phenyl-4H-chromen-4-one], the melting point was 208 to 209 °C. Besides, the inhibition at 1 µM in series [1] is less than 50%.
In the same order, the values of `O=c1c(-c2ccccc2)c(Cn2ccnc2)oc2ccccc12` [Example 12, 2-[(1H-Imidazol-1-yl)methyl]-3-phenyl-4H-chromen-4-one] are 168 to 171 °C and less than 50%.
In the same order, the values of `O=c1c(-c2ccccc2)c(CSc2ncnc3[nH]cnc23)oc2ccc(Br)cc12` [Example 13, 2-[(9H-Purin-6-ylthio)methyl]-6-bromo-3-phenyl-4H-chromen-4-one] are 214 to 218 °C and less than 50%.
On the same counts, the results for `Nc1ncnc2c1cnn2Cc1oc2ccc(Br)cc2c(=O)c1-c1ccccc1` [Example 14, 2-((4-Amino-1H-pyrazolo[3,4-d]pyrimidin-1-yl)methyl)-6-bromo-3-phenyl-4H-chromen-4-one] are 236 to 240 °C and less than 50%.
The molecule `Nc1ncnc2c1ncn2Cc1oc2ccc(Br)cc2c(=O)c1-c1ccc(F)cc1` [Example 15, 2-[(6-Amino-9H-purin-9-yl)methyl]-6-bromo-3-(4-fluorophenyl)-4H-chromen-4-one] showed a melting point of 238 to 242 °C. The molecule also gave an inhibition at 1 µM in series [1] of less than 50%.
Molecule `Cc1ccccc1-c1c(Cn2cnc3c(N)ncnc32)oc2ccc(Br)cc2c1=O` [Example 19, 2-[(6-Amino-9H-purin-9-yl)methyl]-6-bromo-3-o-tolyl-4H-chromen-4-one] had a melting point of 252 to 255 °C.
Turning to `COc1cc(-c2nn(C(C)c3oc4ccccc4c(=O)c3-c3cccc(F)c3)c3ncnc(N)c23)ccc1F` (stereo not drawn) [Example 82, 2-(1-(4-amino-3-(4-fluoro-3-methoxyphenyl)-1H-pyrazolo[3,4-d]pyrimidin-1-yl)ethyl)-3-(3-fluorophenyl)-4H-chromen-4-one], in series [1], the inhibition was in the range of 50 to 100%.
Regarding `CC(c1oc2ccccc2c(=O)c1-c1cccc(F)c1)n1nc(-c2ccc(F)c(O)c2)c2c(N)ncnc21` (stereo not drawn) [Example 82a, 2-(1-(4-amino-3-(4-fluoro-3-hydroxyphenyl)-1H-pyrazolo[3,4-d]pyrimidin-1-yl)ethyl)-3-(3-fluorophenyl)-4H-chromen-4-one], the melting point fell in the range of 241 to 244 °C.
With `COc1cc(F)ccc1-c1nn(C(C)c2oc3ccccc3c(=O)c2-c2cccc(F)c2)c2ncnc(N)c12` (stereo not drawn) [Example 90, 2-(1-(4-amino-3-(4-fluoro-2-methoxyphenyl)-1H-pyrazolo[3,4-d]pyrimidin-1-yl)ethyl)-3-(3-fluorophenyl)-4H-chromen-4-one], the inhibition in series [1] is less than 50%.
`CC(c1oc2ccccc2c(=O)c1-c1cccc(F)c1)n1nc(-c2ccc(F)cc2O)c2c(N)ncnc21` (stereo not drawn) [Example 90a, 2-(1-(4-amino-3-(4-fluoro-2-hydroxyphenyl)-1H-pyrazolo[3,4-d]pyrimidin-1-yl)ethyl)-3-(3-fluorophenyl)-4H-chromen-4-one]: the melting point lay within 235 to 237 °C.
Regarding `Cc1n[nH]c2cc(-c3nn(Cc4oc5ccccc5c(=O)c4-c4ccccc4)c4ncnc(N)c34)ccc12` [Example 92, 2-((4-amino-3-(3-methyl-1H-indazol-6-yl)-1H-pyrazolo[3,4-d]pyrimidin-1-yl)methyl)-3-phenyl-4H-chromen-4-one], the inhibition in series [1] lay in the range of 50 to 100%.
Same read-out and setting: the same measure for `CC(c1oc2ccccc2c(=O)c1-c1cccc(F)c1)n1nc(-c2cc(F)c(O)c(F)c2)c2c(N)ncnc21` (stereo not drawn) [Example 126a, 2-(1-(4-amino-3-(3,5-difluoro-4-hydroxyphenyl)-1H-pyrazolo[3,4-d]pyrimidin-1-yl)ethyl)-3-(3-fluorophenyl)-4H-chromen-4-one]: less than 50%.
In the case of `CC(C)Oc1ccc(-c2nn(C(C)c3oc4ccccc4c(=O)c3-c3cccc(F)c3)c3ncnc(N)c23)cc1F` (stereo not drawn) [Example 158, 2-(1-(4-amino-3-(3-fluoro-4-isopropoxyphenyl)-1H-pyrazolo[3,4-d]pyrimidin-1-yl)ethyl)-3-(3-fluorophenyl)-4H-chromen-4-one], the inhibition in series [1] was 50 to 100%. Besides, the IC50 in series [1] (read-out: P110 δ/ Pi3K δ IC 50 nM) was less than 250 nM.
On to `CC(c1oc2ccccc2c(=O)c1-c1cccc(F)c1)n1nc(-c2cncnc2)c2c(N)ncnc21` (stereo not drawn) [Example 160, 2-(1-(4-amino-3-(pyrimidin-5-yl)-1H-pyrazolo[3,4-d]pyrimidin-1-yl)ethyl)-3-(3-fluorophenyl)-4H-chromen-4-one], for which the melting point was 207 to 211 °C.
`CC(c1oc2ccccc2c(=O)c1-c1cccc(F)c1)n1nc(-c2cnn(C)c2)c2c(N)ncnc21` (stereo not drawn) [Example 164, 2-(1-(4-amino-3-(1-methyl-1H-pyrazol-4-yl)-1H-pyrazolo[3,4-d]pyrimidin-1-yl)ethyl)-3-(3-fluorophenyl)-4H-chromen-4-one] had an inhibition in series [1] of less than 50%.
Consider `CCOc1ccc2cc(-c3nn(C(C)c4oc5ccccc5c(=O)c4-c4cccc(F)c4)c4ncnc(N)c34)ccc2c1` (stereo not drawn) [Example 175, 2-(1-(4-amino-3-(6-ethoxynaphthalen-2-yl)-1H-pyrazolo[3,4-d]pyrimidin-1-yl)ethyl)-3-(3-fluorophenyl)-4H-chromen-4-one], for which the melting point lay in the range of 286 to 290 °C.
